In US8729088B2, “Toll-like receptor modulators and treatment of diseases” (The Regents of the University of California, priority 2009, dated 2014):

Legend:
[1] = tested on: TLR7; experiment: Cytokine induction in BMDM from wild type and TLR7 deficient mice; format: cell-based, mouse; settings: BMDM from TLR7 deficient mice
Procedure: In vitro measurements of cytokine induction were performed using the mouse leukemic monocyte macrophage cell line, RAW264.7. […] BMDM were prepared from C57BL/6 and TLR7 deficient mice as described in Wu, C. C et al., (2007) “Immunotherapeutic activity of a conjugate of a Toll-like receptor 7 ligand”, Proc Natl Acad Sci USA 104, 3990-5.
In general, RAW264.7 cells or BMDM were incubated with various concentrations of conjugates for 18 hours at 37° C., 5% CO2 and culture supernatants were collected. The levels of cytokines (IL-6, IL-12 or TNF-α in the supernatants were determined by ELISA (BD Biosciences Pharmingen, La Jolla, Calif.) (Cho, H. J et al., “Immunostimulatory DNA-based vaccines induce cytotoxic lymphocyte activity by a T-helper cell-independent mechanism” [see comments], Nat Biotechnol 18, 509-14 (2000)), and the results presented in FIG. 2A-D. Data are mean±SEM of triplicates and are representative of three independent experiments. Minimum detection levels of these cytokines were 15 pg/mL.

[2] = molecular target: T1, TLR7 (Homo sapiens, UniProt Q9NYK1); experiment: Cytokine induction in human PBMC, LUMINEX bead assay; format: cell-based; settings: 18 hours
T1 construct: endogenous in cells; host or cells: human PBMC from buffy coats (The San Diego Blood Bank)
T1 sequence (Q9NYK1 27-1049): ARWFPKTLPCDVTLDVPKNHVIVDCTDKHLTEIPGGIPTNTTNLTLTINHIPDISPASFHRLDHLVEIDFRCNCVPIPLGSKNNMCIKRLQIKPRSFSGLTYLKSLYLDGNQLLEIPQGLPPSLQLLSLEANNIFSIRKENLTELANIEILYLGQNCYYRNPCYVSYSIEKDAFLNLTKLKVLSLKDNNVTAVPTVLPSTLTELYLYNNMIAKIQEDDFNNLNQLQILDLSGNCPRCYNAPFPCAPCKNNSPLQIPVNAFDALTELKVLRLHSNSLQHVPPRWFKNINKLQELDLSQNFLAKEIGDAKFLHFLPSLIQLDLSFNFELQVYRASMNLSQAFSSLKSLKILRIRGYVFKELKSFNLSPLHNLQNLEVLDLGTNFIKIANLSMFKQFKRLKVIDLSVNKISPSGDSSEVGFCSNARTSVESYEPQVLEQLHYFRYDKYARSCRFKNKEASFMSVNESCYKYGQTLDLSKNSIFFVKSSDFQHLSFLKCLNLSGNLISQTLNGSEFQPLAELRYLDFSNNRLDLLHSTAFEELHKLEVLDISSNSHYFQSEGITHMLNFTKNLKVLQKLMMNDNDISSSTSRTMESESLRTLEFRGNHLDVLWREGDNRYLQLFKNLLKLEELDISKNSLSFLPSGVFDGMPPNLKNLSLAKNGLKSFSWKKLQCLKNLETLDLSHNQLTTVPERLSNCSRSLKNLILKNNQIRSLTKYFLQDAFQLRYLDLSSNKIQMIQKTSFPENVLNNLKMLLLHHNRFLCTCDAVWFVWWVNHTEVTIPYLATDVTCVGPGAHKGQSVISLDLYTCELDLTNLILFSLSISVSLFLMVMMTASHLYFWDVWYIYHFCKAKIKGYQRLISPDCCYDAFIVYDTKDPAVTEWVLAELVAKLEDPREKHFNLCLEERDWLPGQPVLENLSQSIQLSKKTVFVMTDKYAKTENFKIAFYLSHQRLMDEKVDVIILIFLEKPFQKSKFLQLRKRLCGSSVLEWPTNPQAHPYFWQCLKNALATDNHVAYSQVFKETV
Procedure: Human blood peripheral mononuclear cells (PBMC) were isolated from human buffy coats, purchased from The San Diego Blood Bank (San Diego, Calif.), as described in Hayashi, T et al., “Enhancement of innate immunity against Mycobacterium avium infection by immunostimulatory DNA is mediated by indoleamine 2,3-dioxygenase”, Infect Immun 69:6156-64, (2001). PBMC (1×10^6/mL) were incubated with various concentrations of TLR7 conjugates for 18 hours at 37° C., 5% CO2 and culture supernatants were collected. The levels of cytokines (IL-6, TNF-α, or IFNα1) in the supernatants were determined by LUMINEX bead assays (Invitrogen, Carlsbad, Calif.), and the results presented in FIG. 3A-B. Data are mean±SEM of triplicates and are representative of three independent experiments. The minimum detection levels of IL-6, TNF-α, and IFNα1 were 6 pg/mL, 10 pg/mL and 15 pg/mL, respectively.
To further investigate the immunological activities in human cells, human PBMC from three donors were treated with TLR7 conjugates and the levels of IL-6 and IFNa1 were determined by LUMINEX assay (FIG. 3A-B).

| order of TLR7 conjugate potency [2] | SMILES | IL-12 and IL-6 induction [1] |
| --- | --- | --- |
| (4b)>(6)>(9)>/=SM>(8) | CCCCCCCC/C=C\CCCCCCCC(=O)OCC(COP(=O)(O)OCCNC(=O)c1ccc(Cn2c(=O)[nH]c3c(N)nc(OCCOC)nc32)cc1)OC(=O)CCCCCCC/C=C\CCCCCCCC (stereo not drawn) [Compound 6, 2-(4-((6-amino-2-(2-methoxyethoxy)-8-oxo-7H-purin-9(8H)-yl)methyl)benzamido)ethyl 2,3-bis(oleoyloxy)propyl phosphate] | little or no IL-12 and IL-6 |
| (4b)>(6)>(9)>/=SM>(8) | COCCOc1nc(N)c2nc(O)n(Cc3ccc(C(=O)NCCOCCOCCOCCOCCOCCOCCOCCOCCOCCOCCn4cc(CCC(=O)O)nn4)cc3)c2n1 [Compound 8, 3-(1-(1-(4-((6-amino-8-hydroxy-2-(2-methoxyethoxy)-9H-purin-9-yl)methyl)phenyl)-1-oxo-5,8,11,14,17,20,23,26,29,32-decaoxa-2-azatetratriacontan-34-yl)-1H-1,2,3-triazol-4-yl)propanoic acid] | little or no IL-12 and IL-6 |
| (4b)>(6)>(9)>/=SM>(8) | CCCCCCCC/C=C\CCCCCCCC(=O)OCC(COP(=O)(O)OCCNC(=O)CCc1cn(CCOCCOCCOCCOCCOCCOCCOCCOCCOCCOCCNC(=O)c2ccc(Cn3c(O)nc4c(N)nc(OCCOC)nc43)cc2)nn1)OC(=O)CCCCCCC/C=C\CCCCCCCC (stereo not drawn) [Compound 9, 2-(3-(1-(1-(4-((6-amino-8-hydroxy-2-(2-methoxyethoxy)-9H-purin-9-yl)methyl)phenyl)-1-oxo-5,8,11,14,17,20,23,26,29,32-decaoxa-2-azatetratriacontan-34-yl)-1H-1,2,3-triazole-4-yl)propanamido)ethyl 2,3-bis(oleoyloxy)propyl phosphate] | little or no IL-12 and IL-6 |
